Test results from article PMC13195669, “GPR3 Ligands Discovered through Combined Virtual and Conformational Biosensor-Based Screening” (Journal of the American Chemical Society, 2026).

Key:
GPR6 = target: T1, GPR6 (Homo sapiens, UniProt P46095); assay: cAMP GloSensor 22F, GPR6-transfected HEK293A cells; format: cell-based
T1 construct: expressed in transfected cells; host or cells: HEK293A, transient
Excerpt: (§1) Next, we used the classical cAMP GloSensor technology to assess the target selectivity profile of 33. […] In addition, we tested the effects of 33 on cAMP changes mediated by agonist-stimulated GPCRs phylogenetically close to GPR3 and coupling to Gs or Gi/o proteins. […]
(§2) conditioning and no constraints were applied. The poses were visually inspected and the most favorable one that coincides with the co-solved ligand according to the available structures was chosen.
(§3) Plasmids and molecular cloning
(§4) The H187-EPAC-FRET sensor7 was kindly provided by K. Jalink (The Netherlands Cancer Institute, Amsterdam, The Nether-lands). The BRET-based cAMP sensor CAMYEL8 was kindly provided by Laura Humphrys (University of Regensburg, Regens-burg, Germany). Plasmids encoding the conformational biosensors α2AAR- and β2AR-HaloTag/Nluc9 and the Gs heterotrimer dissociation sensor10 were previously described. The expression plasmid encoding N-terminally HA-tagged GPR3 (cat. no.
(§5) #GPR003TN00) on a pcDNA3.1+ vector was obtained from the cDNA resource center (cdna.org). The Nluc and HaloTag in-serts were amplified with overhanging restriction sites from β2AAR- HaloTag/Nluc and ligated to the full-length C-terminus or inserted into icl3 of GPR3, respectively, to obtain the conformational biosensor GPR3-HaloTag/Nluc. […]

GPR3 = target: T2, GPR3 (Homo sapiens, UniProt P46089); assay: cAMP GloSensor 22F, GPR3-transfected HEK293A cells; format: cell-based; details: read-out: EC50 of cAMP decrease in GPR3-expressing cells
T2 construct: host or cells: HEK293A, transient
T2 sequence (P46089 whole entry): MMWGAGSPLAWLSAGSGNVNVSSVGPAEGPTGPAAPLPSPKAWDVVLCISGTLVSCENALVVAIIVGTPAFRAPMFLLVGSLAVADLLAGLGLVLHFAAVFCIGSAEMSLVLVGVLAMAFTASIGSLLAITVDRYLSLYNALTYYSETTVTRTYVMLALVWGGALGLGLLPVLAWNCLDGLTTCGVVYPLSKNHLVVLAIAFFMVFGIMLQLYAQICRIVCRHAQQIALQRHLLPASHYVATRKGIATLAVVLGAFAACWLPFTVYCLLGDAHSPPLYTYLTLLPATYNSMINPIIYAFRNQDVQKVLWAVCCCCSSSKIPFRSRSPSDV
Excerpt: as §1, §2, §3, §4, §5

T1 sequence (P46095 whole entry, species assumed): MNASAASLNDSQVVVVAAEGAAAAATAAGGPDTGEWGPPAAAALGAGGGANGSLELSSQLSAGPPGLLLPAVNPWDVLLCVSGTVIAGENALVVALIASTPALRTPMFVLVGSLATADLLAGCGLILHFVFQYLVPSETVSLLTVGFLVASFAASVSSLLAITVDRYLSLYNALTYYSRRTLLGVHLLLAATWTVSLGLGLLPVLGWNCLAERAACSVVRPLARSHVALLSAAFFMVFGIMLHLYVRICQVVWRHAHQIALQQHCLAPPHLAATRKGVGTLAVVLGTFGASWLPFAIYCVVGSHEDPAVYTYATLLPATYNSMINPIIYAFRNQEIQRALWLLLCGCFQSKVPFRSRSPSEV

EC50 (GPR3): 2000 nM
SMILES: N=c1n(Cc2ccccc2)c2ccccc2n1CC1CC1 [compound 33]
receptor-specific change in cAMP, GPR6 (GPR6): no receptor-specific changes in cAMP levels below 100 μM
